Several values for one entry are separate records, joined by “and”; a condition that tells them apart may be missing. Identical values can stand only once.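 1) Cells in 96-well plates. 2) Compound, 48 h, 5 concentrations. 3) Linear interpolation between surrounding doses. 4) Unreached endpoint = highest concentration. The concentration for 50% growth inhibition is given as GI50. TGI: concentration producing complete growth inhibition.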
Key:
Assay in all cases: NCI-60 cell line screen, 48 h
[1] = system: HL-60(TB) leukemia
[2] = system: CAKI-1 renal
[3] = system: BT-549 breast
[4] = system: NCI-H23 lung
[5] = system: M14 melanoma
[6] = system: MOLT-4 leukemia
[7] = system: SK-MEL-28 melanoma
[8] = system: SNB-75 CNS
[9] = system: A498 renal
[10] = system: HS 578T breast

Structure (SMILES)	GI50 [1]	TGI [1]	GI50 [2]	TGI [2]	GI50 [3]	TGI [3]	GI50 [4] [µM]	TGI [4]	GI50 [5]	TGI [5]	GI50 [6]	TGI [6]	GI50 [7]	TGI [7]	GI50 [8]	TGI [8]	GI50 [9]	TGI [9]	GI50 [10] [µM]	TGI [10]
O=C(/C=C/c1ccc(C(F)(F)F)cc1)Nc1ccc(C=C2c3ccccc3C(=O)c3ccccc32)cc1	1.78 µM	8.75 µM	3.39 µM	> 100 µM	3.33 µM	48 µM	3.32	> 100 µM	3.41 µM	18.8 µM	4.65 µM	65.1 µM	7.38 µM	> 100 µM	7.26 µM	39.1 µM	2.6 µM	52.8 µM	13.1	> 100 µM
O=C(/C=C/c1ccc(O)c(O)c1)NCc1c[nH]c2ccccc12	70 µM	> 100 µM	27.9 µM	> 100 µM	78.5 µM	> 100 µM	85.8	> 100 µM	64.8 µM	> 100 µM	25.8 µM	> 100 µM	58.3 µM	> 100 µM	82.4 µM	> 100 µM	32.4 µM	> 100 µM	73.7	> 100 µM
O=c1cc(-c2ccc(O)cc2)oc2cc(O[C@@H]3O[C@H](CO)[C@@H](O)[C@H](O)[C@H]3O)cc(O)c12		> 100 µM		0.718 µM		> 100 µM		> 100 µM		> 100 µM		> 100 µM		> 100 µM		> 100 µM		> 100 µM		> 100 µM
Cc1cc(Cl)ccc1OCC(=O)Nc1nc(N)nc(N)n1		> 100 µM		> 100 µM		> 100 µM		> 100 µM		> 100 µM		> 100 µM		> 100 µM		> 100 µM		> 100 µM		> 100 µM
COC(=O)C(CCC(=O)CCl)N1C(=O)c2ccccc2C1=O (stereo unspecified)		5.71 µM		26.7 µM		21.8 µM		22.8 µM		14.8 µM		6.94 µM		23.5 µM		29.3 µM		36.6 µM		32.4 µM
O=c1c2cc(-c3ccccc3)sc2ncn1Cc1ccc(Cl)c(Cl)c1	14.9 µM	34.1 µM	16.4 µM	49.1 µM	21 µM	60.4 µM	17.3	44.2 µM	25.7 µM	> 100 µM	18.9 µM	54.9 µM	45.5 µM	> 100 µM	18.1 µM	48.7 µM	19.4 µM	50.3 µM	11	45.1 µM
CC1=C2C(=CC(C)(C)[C@@H]2O)C(=O)[C@](C)(O)C12CC2	0.00901 µM and 0.0194 µM	0.0495 µM and 0.0832 µM	0.0129 µM and 0.0436 µM	0.0697 µM and 0.594 µM	0.0305 µM	0.107 µM and 0.0788 µM	0.0157	0.0607 µM and 0.0266 µM		0.0537 µM and 0.0431 µM	0.0137 µM	0.134 µM and < 0.0208 µM		0.0756 µM and 0.0891 µM	0.0315 µM and < 0.0142 µM	0.0723 µM and 0.0272 µM	0.0183 µM and 0.0108 µM	0.0499 µM and 0.0553 µM	0.0276	0.0855 µM and 0.0395 µM
CN1CCN(Cc2ccc(NC(=O)c3cncc(C#Cc4cnc(N)cc4C#N)c3)cc2C(F)(F)F)CC1	0.768 µM	3.58 µM	3.78 µM	16.7 µM	4.25 µM	16.8 µM	2.24	13.7 µM	0.623 µM	3.86 µM	1.86 µM	22.3 µM	1.11 µM	9 µM	5.92 µM	19.8 µM	0.227 µM	3.67 µM	1.46	7.46 µM
CN(C)CCNC(=O)c1ccc(-c2nc3ccc4[nH]ncc4c3c3c2C2CCC3C2)cc1 (stereo unspecified)	0.388 µM	2.52 µM	0.93 µM	5.25 µM	1.25 µM	2.93 µM	1.63	5.94 µM	0.809 µM	2.75 µM	1.1 µM	5.56 µM	1.84 µM	5.64 µM	0.341 µM	1.14 µM	0.22 µM	1.22 µM	0.494	2.62 µM
CCCCCN(CCCCC)CC(O)c1cc(Cl)ccc1OC (stereo unspecified)	5.05 µM	25.9 µM	2.81 µM	16.6 µM	15.9 µM	38.3 µM	5.79	20.9 µM	8.81 µM	22.6 µM	6.94 µM	28.7 µM	1.63 µM	3.51 µM	0.197 µM	5.83 µM	11.6 µM	29.3 µM	12.9	33.6 µM
CCN1CCN(Cc2ccc(NC(=O)Nc3nc4ccc(Oc5ccnc(C(=O)NC)c5)cc4s3)cc2C(F)(F)F)CC1	2.01 µM	4.11 µM	1.94 µM	4.15 µM	2.32 µM	4.25 µM	1.83	3.86 µM	1.75 µM	3.38 µM	2.13 µM	5.02 µM	1.24 µM	2.69 µM	1.37 µM	2.73 µM	1.83 µM	3.54 µM	2.01	4.44 µM
C1=C/COCc2cc(ccc2OCCN2CCCC2)Nc2nccc(n2)-c2ccc(o2)COC/1	0.729 µM	6.27 µM	0.46 µM	3.28 µM	2.18 µM	4.95 µM	1.61	5.24 µM	1.56 µM	9.09 µM	1.63 µM	5.57 µM	1.65 µM	5.26 µM	1.25 µM	2.75 µM	1.52 µM	3.57 µM	1.89	6.77 µM
Cc1ccc2nc(-c3ccc(OCC(=O)N=Nc4c(O)[nH]c5ccccc45)cc3)[nH]c2c1	9.8 µM	35.9 µM	2.8 µM	10.2 µM	45.1 µM	> 100 µM	3.53	14.5 µM	5.43 µM	> 100 µM	2.99 µM	8.87 µM	2.61 µM	7 µM	13 µM	38.5 µM	> 100 µM	> 100 µM	11.4	42.3 µM
O=C(O)/C=C\C(=O)Nc1ccccn1		> 100 µM		> 100 µM		> 100 µM		> 100 µM		> 100 µM		> 100 µM		> 100 µM		> 100 µM		> 100 µM		> 100 µM
COC(=O)c1cc2c(cc1Cl)SC1=NN(C)S(=O)N1S2(=O)=O (stereo unspecified)	> 100 µM	> 100 µM	> 100 µM	> 100 µM	> 100 µM	> 100 µM	> 100	> 100 µM	> 100 µM	> 100 µM	> 100 µM	> 100 µM	> 100 µM	> 100 µM	85.9 µM	> 100 µM	75 µM	> 100 µM	> 100	> 100 µM
CN1CCN(CCOc2ccc(-c3cnc4c(-c5cccc(F)c5)cnn4c3)cc2)CC1	2.1 µM	4.36 µM	1.61 µM	3.12 µM	3.51 µM	14.1 µM	1.87	3.72 µM	1.95 µM	4.34 µM	2.15 µM	4.82 µM	2.07 µM	4.54 µM	1.39 µM	3.53 µM	1.76 µM	5.7 µM	1.74	4.79 µM
CN(C)c1nc(=NCc2ccco2)ss1		10.6 µM		49.1 µM		38.4 µM		58 µM		> 53.8 µM		44.8 µM		46.4 µM		53.9 µM		> 100 µM		78 µM
Cc1cc(C)c2c(n1)sc1c(N)ncnc12	> 25 µM	> 25 µM	15.8 µM	> 25 µM	11.3 µM	> 25 µM	> 25	> 25 µM	> 25 µM	> 25 µM	> 25 µM	> 25 µM	> 25 µM	> 25 µM	> 20.8 µM	> 25 µM	4.9 µM	> 25 µM	11.4	> 25 µM
Cn1c(=O)c2[nH]c(SCCN3CCOCC3)nc2n(C)c1=S		> 100 µM		> 100 µM		> 100 µM		> 100 µM		> 100 µM		> 100 µM		> 100 µM		> 100 µM		> 100 µM		> 100 µM
CCCn1cnc2c(SCC(=O)O)nc(N)nc21		> 100 µM		> 100 µM		> 100 µM		> 100 µM		> 100 µM				> 100 µM		> 100 µM		> 100 µM		> 100 µM
CC[C@@]1(OC(=O)CN)C(=O)OCc2c1cc1n(c2=O)Cc2c-1nc1cc3c(cc1c2CCl)OCO3	< 0.01 µM		< 0.01 µM	1.98 µM	0.0918 µM	2.54 µM	< 0.01	0.0885 µM	0.0102 µM		< 0.01 µM		0.474 µM	20.5 µM	< 0.0244 µM		0.0661 µM	1.24 µM	0.762	5.5 µM
CSc1ncc(Br)c(Sc2nc(N)nc3nc[nH]c23)n1	4.34 µM	27.3 µM	1.84 µM	34.1 µM	2.64 µM	> 100 µM	3.74	> 100 µM	2.78 µM	> 100 µM			6.63 µM	53 µM	2.82 µM	81.4 µM	3.62 µM	29 µM	6.71	> 100 µM
CCCCCCCCOC(=O)c1c(C)[nH]c(/C=C2\N=C(c3ccc[nH]3)C=C2OC)c1C	0.0688 µM	4.25 µM	< 0.0214 µM	4.83 µM	0.164 µM	14.4 µM	0.0965	2.2 µM	0.0351 µM	2.01 µM	< 0.0201 µM	18.5 µM	0.25 µM	6.14 µM	0.0451 µM	0.432 µM	0.19 µM	2 µM	0.0494	0.578 µM
COc1cccc(CN(C)c2ccc(CO)c(Cl)c2)c1	26 µM	> 87.1 µM	2.82 µM	> 59.3 µM	19.8 µM	80 µM	18.6	> 100 µM	25.2 µM	> 100 µM	33.1 µM	> 100 µM	24.2 µM	> 100 µM	22.2 µM	98.4 µM	0.0311 µM	0.154 µM	43.6	> 100 µM
O=C1C2=C(C(=O)c3cnccc31)C1C=CC2CC1 (stereo unspecified)	1.25 µM	4.63 µM	3.57 µM	9.33 µM	5.86 µM	10.3 µM	1.82	4.02 µM	1.94 µM	3.41 µM			2.02 µM	3.69 µM	1.34 µM	2.73 µM	16.1 µM	29.7 µM	2.77	6.6 µM
Cc1nc2ccc(Br)cc2c(=O)n1-c1ccc(NC2OCC(O)C(O)C2O)cc1 (stereo unspecified)	34.9 µM and 73.1 µM	> 100 µM	20.3 µM and > 100 µM	44.1 µM and > 100 µM	24.2 µM and 99.5 µM	53.9 µM and > 100 µM			17.9 µM and > 100 µM	35.6 µM and > 100 µM	19.6 µM and 71.2 µM	> 100 µM	26.2 µM and > 100 µM	66.9 µM and > 100 µM	38.7 µM and 92.3 µM	> 100 µM		> 100 µM		> 100 µM
CCOC(=O)c1c(C)n(Cc2ccc(Cl)cc2Cl)c2c1cc1oc(=O)c(=O)n3cnc2c13	5.43 µM	28.2 µM	17 µM	32.3 µM	21.6 µM	40.9 µM			22.3 µM	41.6 µM	3.99 µM	20.7 µM	14.2 µM	31.7 µM	3.39 µM	15.3 µM	20.6 µM	36.1 µM	24.1	64.2 µM
Cc1cc(Nc2nc(C(=O)Nc3ccccc3)nc3ccccc23)n[nH]1	5.9 µM	> 25 µM	1.87 µM	> 25 µM	15.7 µM	> 25 µM			3.48 µM	> 25 µM	9.75 µM	> 25 µM	> 25 µM	> 25 µM	6.8 µM	> 25 µM	1.05 µM	> 25 µM	7.68	> 25 µM
